Settings in all cases: Compound concentration 10 µM
The target of test [1] is Histamine H2 receptor (Homo sapiens) (UniProt P25021).
Description: PDSP Primary Binding target: HRH2 - Compounds are tested at 10 uM concentration, plate are incubated at room temperature in the dark for 90 minutes. Reaction are stopped by vacuum filtration onto 0.3% polyethyleneimine soaked filter mats using Filtermate harvester. Scintilation cocktail is then melted onto microwave-dried filters on a hot plate and the radio activity is counted in Microbia counter.
For test [2], the target named is Translocator protein (Homo sapiens) (UniProt P30536).
Description: PDSP Primary Binding target: TSPO - Compounds are tested at 10 uM concentration, plate are incubated at room temperature in the dark for 90 minutes. Reaction are stopped by vacuum filtration onto 0.3% polyethyleneimine soaked filter mats using Filtermate harvester. Scintilation cocktail is then melted onto microwave-dried filters on a hot plate and the radio activity is counted in Microbia counter.
Test [3] addresses 5-hydroxytryptamine receptor 1B (Homo sapiens) (UniProt P28222).
Description: PDSP Primary Binding target: HTR1B - Compounds are tested at 10 uM concentration, plate are incubated at room temperature in the dark for 90 minutes. Reaction are stopped by vacuum filtration onto 0.3% polyethyleneimine soaked filter mats using Filtermate harvester. Scintilation cocktail is then melted onto microwave-dried filters on a hot plate and the radio activity is counted in Microbia counter.
Test [4] deals with Beta-1 adrenergic receptor (Homo sapiens) (UniProt P08588).
Description: PDSP Primary Binding target: ADRB1 - Compounds are tested at 10 uM concentration, plate are incubated at room temperature in the dark for 90 minutes. Reaction are stopped by vacuum filtration onto 0.3% polyethyleneimine soaked filter mats using Filtermate harvester. Scintilation cocktail is then melted onto microwave-dried filters on a hot plate and the radio activity is counted in Microbia counter.
Test [5] has as its target Kappa-type opioid receptor (Homo sapiens) (UniProt P41145).
Description: PDSP Primary Binding target: OPRK1 - Compounds are tested at 10 uM concentration, plate are incubated at room temperature in the dark for 90 minutes. Reaction are stopped by vacuum filtration onto 0.3% polyethyleneimine soaked filter mats using Filtermate harvester. Scintilation cocktail is then melted onto microwave-dried filters on a hot plate and the radio activity is counted in Microbia counter.
Test [6] deals with Mu-type opioid receptor (Homo sapiens) (UniProt P35372).
Mu-type opioid receptor (Homo sapiens), sequence (P35372 whole entry): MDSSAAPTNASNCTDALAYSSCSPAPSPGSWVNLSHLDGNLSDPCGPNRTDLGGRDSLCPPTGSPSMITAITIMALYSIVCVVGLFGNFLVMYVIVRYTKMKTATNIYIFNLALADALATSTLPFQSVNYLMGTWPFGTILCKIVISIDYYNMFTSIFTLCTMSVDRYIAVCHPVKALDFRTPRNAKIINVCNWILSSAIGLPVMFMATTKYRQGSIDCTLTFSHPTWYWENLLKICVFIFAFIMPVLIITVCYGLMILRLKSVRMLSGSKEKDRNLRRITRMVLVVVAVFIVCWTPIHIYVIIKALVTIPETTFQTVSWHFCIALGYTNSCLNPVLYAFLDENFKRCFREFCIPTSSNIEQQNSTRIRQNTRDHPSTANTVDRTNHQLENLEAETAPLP
Description: PDSP Primary Binding target: OPRM1 - Compounds are tested at 10 uM concentration, plate are incubated at room temperature in the dark for 90 minutes. Reaction are stopped by vacuum filtration onto 0.3% polyethyleneimine soaked filter mats using Filtermate harvester. Scintilation cocktail is then melted onto microwave-dried filters on a hot plate and the radio activity is counted in Microbia counter.
The target of test [7] is Beta-3 adrenergic receptor (Homo sapiens) (UniProt P13945).
Beta-3 adrenergic receptor (Homo sapiens), sequence (P13945 whole entry, looked up): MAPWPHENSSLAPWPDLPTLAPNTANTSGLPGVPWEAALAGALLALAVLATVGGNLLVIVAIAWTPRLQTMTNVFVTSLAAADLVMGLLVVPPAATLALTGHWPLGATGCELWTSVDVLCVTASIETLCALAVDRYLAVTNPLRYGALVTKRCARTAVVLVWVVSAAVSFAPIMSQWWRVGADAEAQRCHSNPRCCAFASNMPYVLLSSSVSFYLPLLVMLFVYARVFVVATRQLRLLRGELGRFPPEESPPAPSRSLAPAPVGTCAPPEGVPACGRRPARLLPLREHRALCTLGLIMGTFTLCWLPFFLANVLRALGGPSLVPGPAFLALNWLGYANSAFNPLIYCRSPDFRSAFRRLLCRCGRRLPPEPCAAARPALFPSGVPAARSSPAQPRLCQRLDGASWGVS
Description: PDSP Primary Binding target: ADRB3 - Compounds are tested at 10 uM concentration, plate are incubated at room temperature in the dark for 90 minutes. Reaction are stopped by vacuum filtration onto 0.3% polyethyleneimine soaked filter mats using Filtermate harvester. Scintilation cocktail is then melted onto microwave-dried filters on a hot plate and the radio activity is counted in Microbia counter.
The target of test [8] is Beta-2 adrenergic receptor (Homo sapiens) (UniProt P07550).
Beta-2 adrenergic receptor (Homo sapiens), sequence (P07550 whole entry, looked up): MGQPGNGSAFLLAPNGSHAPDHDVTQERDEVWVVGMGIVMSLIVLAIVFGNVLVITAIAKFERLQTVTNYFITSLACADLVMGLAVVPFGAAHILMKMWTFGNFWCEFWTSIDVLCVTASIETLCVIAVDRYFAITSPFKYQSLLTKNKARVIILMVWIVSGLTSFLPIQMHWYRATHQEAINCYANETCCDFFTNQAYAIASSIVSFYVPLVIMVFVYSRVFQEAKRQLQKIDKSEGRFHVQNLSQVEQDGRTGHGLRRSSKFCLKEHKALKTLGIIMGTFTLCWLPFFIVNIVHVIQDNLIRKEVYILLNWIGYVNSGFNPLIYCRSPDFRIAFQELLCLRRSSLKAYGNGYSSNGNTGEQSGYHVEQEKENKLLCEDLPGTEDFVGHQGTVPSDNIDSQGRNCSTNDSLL
Description: PDSP Primary Binding target: ADRB2 - Compounds are tested at 10 uM concentration, plate are incubated at room temperature in the dark for 90 minutes. Reaction are stopped by vacuum filtration onto 0.3% polyethyleneimine soaked filter mats using Filtermate harvester. Scintilation cocktail is then melted onto microwave-dried filters on a hot plate and the radio activity is counted in Microbia counter.
The target of test [9] is 5-hydroxytryptamine receptor 2B (Homo sapiens) (UniProt P41595).
5-hydroxytryptamine receptor 2B (Homo sapiens), sequence (P41595 whole entry): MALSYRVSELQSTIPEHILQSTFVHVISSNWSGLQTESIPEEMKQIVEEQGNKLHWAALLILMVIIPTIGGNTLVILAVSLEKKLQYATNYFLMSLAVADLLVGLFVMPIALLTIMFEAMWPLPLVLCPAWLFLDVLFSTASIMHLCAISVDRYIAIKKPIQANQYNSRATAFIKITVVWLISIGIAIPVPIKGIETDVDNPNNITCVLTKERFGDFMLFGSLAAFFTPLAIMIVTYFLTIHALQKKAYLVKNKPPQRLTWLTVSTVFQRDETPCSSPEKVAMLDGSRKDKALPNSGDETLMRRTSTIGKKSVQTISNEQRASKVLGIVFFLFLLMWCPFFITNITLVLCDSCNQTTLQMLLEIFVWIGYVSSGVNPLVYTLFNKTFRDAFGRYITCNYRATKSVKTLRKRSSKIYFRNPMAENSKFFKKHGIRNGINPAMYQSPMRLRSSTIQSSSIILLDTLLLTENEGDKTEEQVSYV
Description: PDSP Primary Binding target: HTR2B - Compounds are tested at 10 uM concentration, plate are incubated at room temperature in the dark for 90 minutes. Reaction are stopped by vacuum filtration onto 0.3% polyethyleneimine soaked filter mats using Filtermate harvester. Scintilation cocktail is then melted onto microwave-dried filters on a hot plate and the radio activity is counted in Microbia counter.
For test [10], the target named is T1, Muscarinic acetylcholine receptor M1 (Homo sapiens) (UniProt P11229).
T1 sequence (whole entry): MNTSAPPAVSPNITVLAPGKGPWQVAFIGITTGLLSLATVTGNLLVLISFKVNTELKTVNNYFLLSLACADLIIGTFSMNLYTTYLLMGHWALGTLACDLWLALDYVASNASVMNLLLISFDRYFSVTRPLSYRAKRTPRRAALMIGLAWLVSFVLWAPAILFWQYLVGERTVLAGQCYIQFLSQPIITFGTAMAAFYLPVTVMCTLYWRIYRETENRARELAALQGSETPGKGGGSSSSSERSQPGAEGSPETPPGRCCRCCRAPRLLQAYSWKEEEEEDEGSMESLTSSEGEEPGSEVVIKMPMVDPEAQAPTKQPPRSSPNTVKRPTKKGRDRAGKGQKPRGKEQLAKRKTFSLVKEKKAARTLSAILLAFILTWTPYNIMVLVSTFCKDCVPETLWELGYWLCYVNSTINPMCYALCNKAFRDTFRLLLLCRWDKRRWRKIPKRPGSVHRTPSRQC
Description: PDSP Primary Binding target: CHRM1 - Compounds are tested at 10 uM concentration, plate are incubated at room temperature in the dark for 90 minutes. Reaction are stopped by vacuum filtration onto 0.3% polyethyleneimine soaked filter mats using Filtermate harvester. Scintilation cocktail is then melted onto microwave-dried filters on a hot plate and the radio activity is counted in Microbia counter.

Test [11] has as its target Sigma intracellular receptor 2 (Homo sapiens) (UniProt Q5BJF2).
Description: PDSP Primary Binding target: TMEM97 - Compounds are tested at 10 uM concentration, plate are incubated at room temperature in the dark for 90 minutes. Reaction are stopped by vacuum filtration onto 0.3% polyethyleneimine soaked filter mats using Filtermate harvester. Scintilation cocktail is then melted onto microwave-dried filters on a hot plate and the radio activity is counted in Microbia counter.
The target in test [12] is D(2) dopamine receptor (Homo sapiens) (UniProt P14416).
D(2) dopamine receptor (Homo sapiens), sequence (P14416 whole entry): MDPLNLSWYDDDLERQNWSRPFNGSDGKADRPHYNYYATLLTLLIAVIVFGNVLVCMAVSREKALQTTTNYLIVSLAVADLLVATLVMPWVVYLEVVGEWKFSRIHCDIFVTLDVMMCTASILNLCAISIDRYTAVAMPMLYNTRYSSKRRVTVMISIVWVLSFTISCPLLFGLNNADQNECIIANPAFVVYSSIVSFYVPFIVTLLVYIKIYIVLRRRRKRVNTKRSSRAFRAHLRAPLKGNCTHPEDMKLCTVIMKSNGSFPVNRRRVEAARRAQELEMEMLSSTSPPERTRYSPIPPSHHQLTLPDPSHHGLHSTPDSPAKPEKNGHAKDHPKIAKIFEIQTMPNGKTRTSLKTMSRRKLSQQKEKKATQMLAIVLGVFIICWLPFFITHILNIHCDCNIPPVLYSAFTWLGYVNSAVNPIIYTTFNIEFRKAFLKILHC
Description: PDSP Primary Binding target: DRD2 - Compounds are tested at 10 uM concentration, plate are incubated at room temperature in the dark for 90 minutes. Reaction are stopped by vacuum filtration onto 0.3% polyethyleneimine soaked filter mats using Filtermate harvester. Scintilation cocktail is then melted onto microwave-dried filters on a hot plate and the radio activity is counted in Microbia counter.
The target of test [13] is D(1A) dopamine receptor (Homo sapiens) (UniProt P21728).
Description: PDSP Primary Binding target: DRD1 - Compounds are tested at 10 uM concentration, plate are incubated at room temperature in the dark for 90 minutes. Reaction are stopped by vacuum filtration onto 0.3% polyethyleneimine soaked filter mats using Filtermate harvester. Scintilation cocktail is then melted onto microwave-dried filters on a hot plate and the radio activity is counted in Microbia counter.
For test [14], the target named is T2, Alpha-2B adrenergic receptor (Homo sapiens) (UniProt P18089).
T2 sequence (whole entry): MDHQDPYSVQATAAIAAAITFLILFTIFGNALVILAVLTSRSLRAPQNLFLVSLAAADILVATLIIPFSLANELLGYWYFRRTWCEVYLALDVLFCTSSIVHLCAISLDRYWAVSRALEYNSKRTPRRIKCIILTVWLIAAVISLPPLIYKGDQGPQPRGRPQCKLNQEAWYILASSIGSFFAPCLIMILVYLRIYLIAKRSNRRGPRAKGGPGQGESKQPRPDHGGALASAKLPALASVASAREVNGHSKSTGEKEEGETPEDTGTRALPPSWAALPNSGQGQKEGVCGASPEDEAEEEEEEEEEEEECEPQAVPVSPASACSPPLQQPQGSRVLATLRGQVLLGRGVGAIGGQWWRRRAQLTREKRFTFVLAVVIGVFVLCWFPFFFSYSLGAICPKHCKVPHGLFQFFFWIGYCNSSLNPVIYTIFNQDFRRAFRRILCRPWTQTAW
Description: PDSP Primary Binding target: ADRA2B - Compounds are tested at 10 uM concentration, plate are incubated at room temperature in the dark for 90 minutes. Reaction are stopped by vacuum filtration onto 0.3% polyethyleneimine soaked filter mats using Filtermate harvester. Scintilation cocktail is then melted onto microwave-dried filters on a hot plate and the radio activity is counted in Microbia counter.

Test [15] deals with T3, 5-hydroxytryptamine receptor 2C (Homo sapiens) (UniProt P28335).
T3 sequence (whole entry): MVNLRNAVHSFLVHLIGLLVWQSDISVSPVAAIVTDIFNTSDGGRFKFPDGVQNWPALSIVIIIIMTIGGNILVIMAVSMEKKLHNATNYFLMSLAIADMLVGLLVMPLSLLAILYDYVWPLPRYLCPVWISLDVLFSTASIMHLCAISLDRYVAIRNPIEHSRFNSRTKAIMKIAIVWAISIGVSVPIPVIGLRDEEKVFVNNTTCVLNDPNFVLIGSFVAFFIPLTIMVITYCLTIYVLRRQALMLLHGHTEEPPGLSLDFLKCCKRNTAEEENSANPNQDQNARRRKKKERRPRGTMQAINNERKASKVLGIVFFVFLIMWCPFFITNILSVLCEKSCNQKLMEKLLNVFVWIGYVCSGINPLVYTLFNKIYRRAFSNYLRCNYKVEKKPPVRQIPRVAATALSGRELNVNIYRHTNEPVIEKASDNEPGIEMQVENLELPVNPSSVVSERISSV
Description: PDSP Primary Binding target: HTR2C - Compounds are tested at 10 uM concentration, plate are incubated at room temperature in the dark for 90 minutes. Reaction are stopped by vacuum filtration onto 0.3% polyethyleneimine soaked filter mats using Filtermate harvester. Scintilation cocktail is then melted onto microwave-dried filters on a hot plate and the radio activity is counted in Microbia counter.

Test [16] deals with D(1B) dopamine receptor (Homo sapiens) (UniProt P21918).
D(1B) dopamine receptor (Homo sapiens), sequence (P21918 whole entry): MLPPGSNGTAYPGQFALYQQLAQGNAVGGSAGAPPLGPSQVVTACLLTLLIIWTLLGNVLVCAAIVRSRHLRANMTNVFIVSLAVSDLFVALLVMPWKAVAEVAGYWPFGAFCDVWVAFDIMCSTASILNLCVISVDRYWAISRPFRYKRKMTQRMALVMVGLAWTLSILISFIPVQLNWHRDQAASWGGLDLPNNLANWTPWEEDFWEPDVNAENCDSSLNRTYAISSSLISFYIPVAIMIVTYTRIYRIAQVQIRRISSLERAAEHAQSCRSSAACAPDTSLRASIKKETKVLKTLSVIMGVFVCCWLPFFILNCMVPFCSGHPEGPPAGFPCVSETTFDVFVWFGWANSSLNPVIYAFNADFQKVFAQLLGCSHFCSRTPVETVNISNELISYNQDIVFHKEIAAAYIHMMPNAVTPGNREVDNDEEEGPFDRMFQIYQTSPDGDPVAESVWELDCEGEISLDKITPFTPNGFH
Description: PDSP Primary Binding target: DRD5 - Compounds are tested at 10 uM concentration, plate are incubated at room temperature in the dark for 90 minutes. Reaction are stopped by vacuum filtration onto 0.3% polyethyleneimine soaked filter mats using Filtermate harvester. Scintilation cocktail is then melted onto microwave-dried filters on a hot plate and the radio activity is counted in Microbia counter.
For test [17], the target named is 5-hydroxytryptamine receptor 2A (Homo sapiens) (UniProt P28223).
5-hydroxytryptamine receptor 2A (Homo sapiens), sequence (P28223 whole entry): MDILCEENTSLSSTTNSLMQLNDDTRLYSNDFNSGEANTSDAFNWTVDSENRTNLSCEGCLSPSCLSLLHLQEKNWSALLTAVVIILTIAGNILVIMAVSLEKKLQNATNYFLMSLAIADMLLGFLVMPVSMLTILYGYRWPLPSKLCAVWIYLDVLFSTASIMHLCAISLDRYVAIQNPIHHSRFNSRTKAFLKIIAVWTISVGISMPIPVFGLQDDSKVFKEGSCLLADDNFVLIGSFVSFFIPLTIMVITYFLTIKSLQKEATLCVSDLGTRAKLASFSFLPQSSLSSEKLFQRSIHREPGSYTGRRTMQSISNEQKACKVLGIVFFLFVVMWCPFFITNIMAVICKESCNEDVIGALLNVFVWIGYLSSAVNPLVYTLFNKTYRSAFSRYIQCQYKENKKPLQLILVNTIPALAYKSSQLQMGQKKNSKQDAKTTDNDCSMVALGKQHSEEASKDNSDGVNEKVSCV
Description: PDSP Primary Binding target: HTR2A - Compounds are tested at 10 uM concentration, plate are incubated at room temperature in the dark for 90 minutes. Reaction are stopped by vacuum filtration onto 0.3% polyethyleneimine soaked filter mats using Filtermate harvester. Scintilation cocktail is then melted onto microwave-dried filters on a hot plate and the radio activity is counted in Microbia counter.
The target of test [18] is Sigma non-opioid intracellular receptor 1 (Homo sapiens) (UniProt Q99720).
Description: PDSP Primary Binding target: SIGMAR1 - Compounds are tested at 10 uM concentration, plate are incubated at room temperature in the dark for 90 minutes. Reaction are stopped by vacuum filtration onto 0.3% polyethyleneimine soaked filter mats using Filtermate harvester. Scintilation cocktail is then melted onto microwave-dried filters on a hot plate and the radio activity is counted in Microbia counter.
Test [19] deals with Sodium-dependent dopamine transporter (Homo sapiens) (UniProt Q01959).
Description: PDSP Primary Binding target: SLC6A3 - Compounds are tested at 10 uM concentration, plate are incubated at room temperature in the dark for 90 minutes. Reaction are stopped by vacuum filtration onto 0.3% polyethyleneimine soaked filter mats using Filtermate harvester. Scintilation cocktail is then melted onto microwave-dried filters on a hot plate and the radio activity is counted in Microbia counter.
The target in test [20] is 5-hydroxytryptamine receptor 1D (Homo sapiens) (UniProt P28221).
Description: PDSP Primary Binding target: HTR1D - Compounds are tested at 10 uM concentration, plate are incubated at room temperature in the dark for 90 minutes. Reaction are stopped by vacuum filtration onto 0.3% polyethyleneimine soaked filter mats using Filtermate harvester. Scintilation cocktail is then melted onto microwave-dried filters on a hot plate and the radio activity is counted in Microbia counter.
For test [21], the target named is T4, Muscarinic acetylcholine receptor M5 (Homo sapiens) (UniProt P08912).
T4 sequence (whole entry): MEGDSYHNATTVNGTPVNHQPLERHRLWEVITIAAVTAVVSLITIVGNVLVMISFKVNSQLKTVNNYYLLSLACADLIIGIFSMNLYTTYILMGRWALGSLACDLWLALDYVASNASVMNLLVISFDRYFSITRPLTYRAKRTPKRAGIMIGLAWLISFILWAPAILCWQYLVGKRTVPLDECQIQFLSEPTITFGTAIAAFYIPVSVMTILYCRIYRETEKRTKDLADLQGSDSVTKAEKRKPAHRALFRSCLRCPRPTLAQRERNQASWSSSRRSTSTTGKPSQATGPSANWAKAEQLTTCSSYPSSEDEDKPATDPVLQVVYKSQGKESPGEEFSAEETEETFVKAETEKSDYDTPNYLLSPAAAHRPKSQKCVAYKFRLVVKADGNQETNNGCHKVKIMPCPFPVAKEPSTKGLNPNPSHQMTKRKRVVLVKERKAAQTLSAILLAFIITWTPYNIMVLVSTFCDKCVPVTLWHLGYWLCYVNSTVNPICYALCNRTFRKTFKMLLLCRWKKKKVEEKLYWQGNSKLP
Description: PDSP Primary Binding target: CHRM5 - Compounds are tested at 10 uM concentration, plate are incubated at room temperature in the dark for 90 minutes. Reaction are stopped by vacuum filtration onto 0.3% polyethyleneimine soaked filter mats using Filtermate harvester. Scintilation cocktail is then melted onto microwave-dried filters on a hot plate and the radio activity is counted in Microbia counter.

Drawing on ChEMBL document CHEMBL5442219, this text covers inhibition for seven compounds.

SMILES strings stand for the structures.

Kappa-type opioid receptor (Homo sapiens), sequence (P41145 whole entry): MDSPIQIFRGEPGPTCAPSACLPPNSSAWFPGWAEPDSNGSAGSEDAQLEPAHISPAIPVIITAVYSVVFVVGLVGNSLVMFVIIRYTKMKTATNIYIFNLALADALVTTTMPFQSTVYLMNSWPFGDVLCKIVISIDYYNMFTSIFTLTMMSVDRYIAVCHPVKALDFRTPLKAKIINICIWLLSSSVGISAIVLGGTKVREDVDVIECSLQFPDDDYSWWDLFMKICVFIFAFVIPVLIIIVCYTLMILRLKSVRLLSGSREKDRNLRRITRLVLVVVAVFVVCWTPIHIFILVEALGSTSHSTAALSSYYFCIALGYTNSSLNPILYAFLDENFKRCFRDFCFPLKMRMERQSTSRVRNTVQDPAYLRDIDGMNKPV
5-hydroxytryptamine receptor 1B (Homo sapiens), sequence (P28222 whole entry): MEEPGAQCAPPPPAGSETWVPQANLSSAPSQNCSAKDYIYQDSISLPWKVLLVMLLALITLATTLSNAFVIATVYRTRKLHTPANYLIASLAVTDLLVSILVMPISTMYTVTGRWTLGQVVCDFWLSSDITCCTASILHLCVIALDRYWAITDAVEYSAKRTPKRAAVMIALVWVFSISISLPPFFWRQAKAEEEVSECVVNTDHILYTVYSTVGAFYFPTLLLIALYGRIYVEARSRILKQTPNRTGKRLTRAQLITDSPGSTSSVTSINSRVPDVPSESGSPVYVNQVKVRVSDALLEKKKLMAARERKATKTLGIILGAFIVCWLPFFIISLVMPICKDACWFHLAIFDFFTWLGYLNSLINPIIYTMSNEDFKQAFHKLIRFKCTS
Translocator protein (Homo sapiens), sequence (P30536 whole entry): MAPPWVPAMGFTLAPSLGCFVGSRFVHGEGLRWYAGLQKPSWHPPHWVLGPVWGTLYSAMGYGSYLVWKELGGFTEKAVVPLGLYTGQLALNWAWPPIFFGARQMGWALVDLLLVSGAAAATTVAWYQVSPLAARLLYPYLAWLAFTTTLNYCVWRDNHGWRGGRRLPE
Histamine H2 receptor (Homo sapiens), sequence (P25021 whole entry): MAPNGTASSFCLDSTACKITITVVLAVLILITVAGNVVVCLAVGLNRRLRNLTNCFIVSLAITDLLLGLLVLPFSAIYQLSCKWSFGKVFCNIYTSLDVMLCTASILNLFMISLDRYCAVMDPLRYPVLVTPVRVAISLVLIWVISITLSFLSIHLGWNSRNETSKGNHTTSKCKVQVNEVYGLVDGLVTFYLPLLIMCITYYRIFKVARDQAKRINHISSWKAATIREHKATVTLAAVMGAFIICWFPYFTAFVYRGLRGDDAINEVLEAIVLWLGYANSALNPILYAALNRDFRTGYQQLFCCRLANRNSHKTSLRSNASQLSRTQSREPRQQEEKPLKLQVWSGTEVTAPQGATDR
Beta-1 adrenergic receptor (Homo sapiens), sequence (P08588 whole entry, looked up): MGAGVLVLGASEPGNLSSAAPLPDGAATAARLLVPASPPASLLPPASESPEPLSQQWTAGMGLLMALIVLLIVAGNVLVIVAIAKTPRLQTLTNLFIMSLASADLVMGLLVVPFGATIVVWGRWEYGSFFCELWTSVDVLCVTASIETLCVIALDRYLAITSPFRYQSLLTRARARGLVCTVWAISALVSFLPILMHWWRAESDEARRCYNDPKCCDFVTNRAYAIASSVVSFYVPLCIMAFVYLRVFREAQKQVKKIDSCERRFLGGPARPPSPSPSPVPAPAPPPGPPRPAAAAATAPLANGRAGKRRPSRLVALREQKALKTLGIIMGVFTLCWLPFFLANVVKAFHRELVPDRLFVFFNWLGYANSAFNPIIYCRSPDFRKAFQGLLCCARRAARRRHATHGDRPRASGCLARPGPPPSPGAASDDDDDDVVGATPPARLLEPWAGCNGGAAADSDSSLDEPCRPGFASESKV

As for `C/C(=N\NC(=O)[C@@H]1C(=O)NC[C@H]1c1ccccc1)c1cccc(Br)c1`, the inhibition in [1] was 20.4%; in [2] it was 46.9%; in [3] it was 3.07%; in [4], -3.09%; in test [5], 19.1%; in [6], 50.1%. The inhibition in [7] is 3.81%; in test [8], -2.57%; in test [9] it was 14.3%; in test [10] it was -1.51%; in [11], 4.05%; in test [12], 7.24%. Further, the inhibition in [13] was -9.99%; in test [14], -7.62%; in test [15], 33.4%; in test [16] it was -9.13%; in [17], 62.6%; in [18], 21.3%.
As for `CCCCN(CC)c1nc(C)nc2c1c(C)cn2-c1c(C)cc(C)cc1C`, the inhibition was 20.9% in test [1]; 74.3% in [2]; -9.74% in test [3]; 37.8% in test [4]; 36% in [19]; 43.2% in test [5]. The inhibition in test [6] is 20.1%; in test [7] it was 41.7%; in [8], -7.68%; in test [9], 16.9%; in test [11] it was 78.3%; in test [12], 4.03%. Besides, the inhibition in test [13] was 19.2%; in test [14] it was 39.7%; in test [15], -7.17%; in test [16], -2.04%; in test [17], 9.7%; in test [18], 28.8%. The inhibition in test [20] is -0.49%.
`CC[C@@H]1CN2C(=O)N(C)c3nc(-c4ccccc4)[nH]c3C2=N1`: the inhibition was 0.52% in test [1]; -3.48% in test [2]; 6.19% in test [3]; 21.2% in test [4]; 0.34% in [19]; 6.33% in test [5]. Further, the inhibition is -6.84% in [6]; 19.4% in test [7]; 65.2% in [8]; -1.79% in test [9]; 1.36% in test [10]; 4.68% in test [11]. The inhibition is -5.85% in test [14]; 14.2% in [15]; 9.96% in test [16]; 53.6% in [17]; 64.2% in test [18].
Turning to `Cc1csc2c(N[C@@H](C)CN3CCN(S(=O)(=O)c4ccc(Cl)c(Cl)c4)CC3)ncnc12`, the inhibition is 45.2% in test [1]; -7.08% in test [21]; 73.6% in [2]; -1.11% in test [3]; 26.2% in test [4]; 85.4% in test [5]. The inhibition in [6] was 14.7%; in [7], 60.6%; in test [8] it was 1.66%; in test [9], 32.3%; in test [10], 6.35%; in [11], 73.2%. Further, the inhibition in test [12] was 32.8%; in [13], -2.84%; in test [14], -6.72%; in [16], 5.96%; in test [17] it was 31%; in test [18], 86%.
Turning to `CSc1ccc(C(=O)N[C@@H]2CCCC[C@@H]2NC(=O)CNC(=O)c2cc(C(F)(F)F)ccc2NC(=O)NC(C)C)cc1`, the inhibition in [1] was 28.4%; in test [2], 46.9%; in [4], -9.46%; in [19], 28.2%; in test [5], 15.3%; in [6], 28%. Further, the inhibition in test [7] was 1.5%; in test [8] it was 6.71%; in test [9], 27.9%; in test [10], 28.4%; in [11] it was 18.9%; in test [12], 45.7%. The inhibition in test [13] was -8.17%; in [14], 10.8%; in test [15], 33.2%; in test [17], 9.73%; in test [18], 22.2%.
Take `c1ccc(N2CCN(Cc3nc4ccccc4[nH]3)CC2)nc1`: the inhibition in test [1] was 10.1%; in [21] it was -1.59%; in [2] it was 6.18%; in test [3] it was 6.19%; in test [4], 13.5%; in test [19], 22.6%. For the same compound, the inhibition is 54.7% in test [5]; 4.96% in test [6]; 17.4% in test [7]; 16.4% in test [9]; 22.3% in [10]; 1.4% in [11]. The inhibition in [12] was 22.3%; in test [15], -9.96%; in test [16], -1.78%; in test [17] it was 6.02%; in test [18], 50.5%.
For `C[C@@H](NCCc1ccc(O)cc1)[C@@H](O)c1ccc(O)cc1` (relative stereo), the inhibition in test [1] was 8.2%; in test [21], -3.49%; in test [2], 3.95%; in test [3], 2.73%; in [4], 13.4%; in test [19], 39.6%. Besides, the inhibition in [5] was 23.2%; in test [6], 51.1%; in test [7] it was 56.6%; in test [8], 36.5%; in test [9], 34.1%; in [10] it was 24.4%. For the same compound, the inhibition is 58.1% in test [11]; 23.8% in test [12]; -9.44% in test [13]; 5.66% in test [14]; -0.38% in [15]; 5.36% in test [17]. The inhibition in [18] was 75%.

One may read the inhibition as the relative decrease from the control value, in per cent.
